Data: ChEMBL document CHEMBL1629692, “Susceptibility of gram-negative pathogens isolated from patients with complicated intra-abdominal infections in the United States, 2007-2008: results of the Study for Monitoring Antimicrobial Resistance Trends (SMART)” (2010)

Experiments:
Type in all cases: functional
Citrobacter freundii [1] = experiment: Antimicrobial activity against Citrobacter freundii obtained from patient with complicated intra-abdominal infection assessed as percent susceptible isolates by agar dilution method
Klebsiella aerogenes [2] = experiment: Antimicrobial activity against Enterobacter aerogenes obtained from patient with complicated intra-abdominal infection assessed as percent susceptible isolates by agar dilution method
Enterobacter cloacae [3] = experiment: Antimicrobial activity against Enterobacter cloacae obtained from patient with complicated intra-abdominal infection assessed as percent susceptible isolates by agar dilution method
Escherichia coli [4] = experiment: Antimicrobial activity against Escherichia coli obtained from patient with complicated intra-abdominal infection assessed as percent susceptible isolates by agar dilution method
Escherichia coli [5] = experiment: Antimicrobial activity against extended-spectrum beta-lactamase-positive Escherichia coli obtained from patient with complicated intra-abdominal infection assessed as percent susceptible isolates by agar dilution method
Escherichia coli [6] = experiment: Antimicrobial activity against extended-spectrum beta-lactamase-negative Escherichia coli obtained from patient with complicated intra-abdominal infection assessed as percent susceptible isolates by agar dilution method
Klebsiella pneumoniae [7] = experiment: Antimicrobial activity against Klebsiella pneumoniae assessed as percent susceptible isolates by agar dilution method
Klebsiella pneumoniae [8] = experiment: Antimicrobial activity against extended-spectrum beta-lactamase-positive Klebsiella pneumoniae assessed as percent susceptible isolates by agar dilution method
Klebsiella pneumoniae [9] = experiment: Antimicrobial activity against extended-spectrum beta-lactamase-negative Klebsiella pneumoniae assessed as percent susceptible isolates by agar dilution method
Klebsiella oxytoca [10] = experiment: Antimicrobial activity against extended-spectrum beta-lactamase-positive Klebsiella oxytoca assessed as percent susceptible isolates by agar dilution method
Proteus mirabilis [11] = experiment: Antimicrobial activity against extended-spectrum beta-lactamase-positive Proteus mirabilis assessed as percent susceptible isolates by agar dilution method
Pseudomonas aeruginosa [12] = experiment: Antimicrobial activity against Pseudomonas aeruginosa assessed as percent susceptible isolates by agar dilution method
Serratia marcescens [13] = experiment: Antimicrobial activity against Serratia marcescens assessed as percent susceptible isolates by agar dilution method
Pasteurella sp. [14] = experiment: Antimicrobial activity against Pasteurella sp. assessed as percent susceptible isolates by agar dilution method
Pseudomonas fluorescens [15] = experiment: Antimicrobial activity against Pseudomonas fluorescens assessed as percent susceptible isolates by agar dilution method
[16] = test system: Stenotrophomonas maltophilia; experiment: Antimicrobial activity against Stenotrophomonas maltophilia assessed as percent susceptible isolates by agar dilution method
Acinetobacter sp. [17] = experiment: Antimicrobial activity against Acinetobacter sp. assessed as percent susceptible isolates by agar dilution method
Enterobacteriaceae = experiment: Antimicrobial activity against Enterobacteriaceae Extended-Spectrum beta-lactamase positive assessed as percent susceptible isolates by agar dilution method
Citrobacter freundii [18] = experiment: Antimicrobial activity against Citrobacter freundii obtained from patient with complicated intra-abdominal infection assessed as percent susceptible isolates by agar dilution method in presence of beta-lactamase inhibitor Tazobactam
Klebsiella aerogenes [19] = experiment: Antimicrobial activity against Enterobacter aerogenes obtained from patient with complicated intra-abdominal infection assessed as percent susceptible isolates by agar dilution method in presence of beta-lactamase inhibitor Tazobactam
Enterobacter cloacae [20] = experiment: Antimicrobial activity against Enterobacter cloacae obtained from patient with complicated intra-abdominal infection assessed as percent susceptible isolates by agar dilution method in presence of beta-lactamase inhibitor Tazobactam
Escherichia coli [21] = experiment: Antimicrobial activity against Escherichia coli obtained from patient with complicated intra-abdominal infection assessed as percent susceptible isolates by agar dilution method in presence of beta-lactamase inhibitor Tazobactam
Escherichia coli [22] = experiment: Antimicrobial activity against extended-spectrum beta-lactamase-positive Escherichia coli obtained from patient with complicated intra-abdominal infection assessed as percent susceptible isolates by agar dilution method in presence of beta-lactamase inhibitor Tazobactam
Escherichia coli [23] = experiment: Antimicrobial activity against extended-spectrum beta-lactamase-negative Escherichia coli obtained from patient with complicated intra-abdominal infection assessed as percent susceptible isolates by agar dilution method in presence of beta-lactamase inhibitor Tazobactam
Klebsiella pneumoniae [24] = experiment: Antimicrobial activity against Klebsiella pneumoniae assessed as percent susceptible isolates by agar dilution method in presence of beta-lactamase inhibitor Tazobactam
Klebsiella pneumoniae [25] = experiment: Antimicrobial activity against extended-spectrum beta-lactamase-positive Klebsiella pneumoniae assessed as percent susceptible isolates by agar dilution method in presence of beta-lactamase inhibitor Tazobactam
Klebsiella pneumoniae [26] = experiment: Antimicrobial activity against extended-spectrum beta-lactamase-negative Klebsiella pneumoniae assessed as percent susceptible isolates by agar dilution method in presence of beta-lactamase inhibitor Tazobactam
Klebsiella oxytoca [27] = experiment: Antimicrobial activity against extended-spectrum beta-lactamase-positive Klebsiella oxytoca assessed as percent susceptible isolates be agar dilution method in presence of beta-lactamase inhibitor Tazobactam
Proteus mirabilis [28] = experiment: Antimicrobial activity against extended-spectrum beta-lactamase-positive Proteus mirabilis assessed as percent susceptible isolates by agar dilution method in presence of beta-lactamase inhibitor Tazobactam
Pseudomonas aeruginosa [29] = experiment: Antimicrobial activity against Pseudomonas aeruginosa assessed as percent susceptible isolates by agar dilution method in presence of beta-lactamase inhibitor Tazobactam
Serratia marcescens [30] = experiment: Antimicrobial activity against Serratia marcescens assessed as percent susceptible isolates by agar dilution method in presence of beta-lactamase inhibitor Tazobactam
Pasteurella sp. [31] = experiment: Antimicrobial activity against Pasteurella sp. assessed as percent susceptible isolates by agar dilution method in presence of beta-lactamase inhibitor Tazobactam
Pseudomonas fluorescens [32] = experiment: Antimicrobial activity against Pseudomonas fluorescens assessed as percent susceptible isolates by agar dilution method in presence of beta-lactamase inhibitor Tazobactam
[33] = test system: Stenotrophomonas maltophilia; experiment: Antimicrobial activity against Stenotrophomonas maltophilia assessed as percent susceptible isolates by agar dilution method in presence of beta-lactamase inhibitor Tazobactam
Acinetobacter sp. [34] = experiment: Antimicrobial activity against Acinetobacter sp. assessed as percent susceptible isolates by agar dilution method in presence of beta-lactamase inhibitor Tazobactam

SMILES	Activity (Citrobacter freundii [1]) [%]	Activity (Klebsiella aerogenes [2]) [%]	Activity (Enterobacter cloacae [3]) [%]	Activity (Escherichia coli [4]) [%]	Activity (Escherichia coli [5]) [%]	Activity (Escherichia coli [6]) [%]	Activity (Klebsiella pneumoniae [7]) [%]	Activity (Klebsiella pneumoniae [8]) [%]	Activity (Klebsiella pneumoniae [9]) [%]	Activity (Klebsiella oxytoca [10]) [%]	Activity (Proteus mirabilis [11]) [%]	Activity (Pseudomonas aeruginosa [12]) [%]	Activity (Serratia marcescens [13]) [%]	Activity (Pasteurella sp. [14]) [%]	Activity (Pseudomonas fluorescens [15]) [%]	Activity [16] [%]	Activity (Acinetobacter sp. [17]) [%]	other results
CC(C)(O/N=C(\C(=O)N[C@@H]1C(=O)N2C(C(=O)[O-])=C(C[n+]3ccccc3)CS[C@H]12)c1csc(N)n1)C(=O)O [CEFTAZIDIME]	72	63	66	96	52	98	86	19	100	96	94	76	100	32	32	32	32	Activity (Enterobacteriaceae): 31%
C[C@@H](O)[C@H]1C(=O)N2C(C(=O)O)=C(SCCNC=N)C[C@H]12 [IMIPENEM ANHYDROUS]	100	100	100	100	100	100	99	94	100	100	93	78	100	69	69	69	69	
NCC[C@H](O)C(=O)N[C@@H]1C[C@H](N)[C@@H](O[C@H]2O[C@H](CN)[C@@H](O)[C@H](O)[C@H]2O)[C@H](O)[C@H]1O[C@H]1O[C@H](CO)[C@@H](O)[C@H](N)[C@H]1O [AMIKACIN]	100	100	99	98	71	100	95	69	100	100	100	96	100	31	31	31	31	
O=C(O)c1cn(C2CC2)c2cc(N3CCNCC3)c(F)cc2c1=O [CIPROFLOXACIN]	72	96			33	82	80	19		96	97		93	15	15	15	15	
CO/N=C(\C(=O)N[C@@H]1C(=O)N2C(C(=O)[O-])=C(C[N+]3(C)CCCC3)CS[C@H]12)c1csc(N)n1	94	100			48		91	47	100	96	100	72	100	23	23	23	23	
CCN1CCN(C(=O)N[C@@H](C(=O)N[C@@H]2C(=O)N3[C@@H]2SC(C)(C)[C@@H]3C(=O)O)c2ccccc2)C(=O)C1=O [PIPERACILLIN]																		Activity (Citrobacter freundii [18]): 72%; Activity (Klebsiella aerogenes [19]): 88%; Activity (Enterobacter cloacae [20]): 69%; Activity (Escherichia coli [21]): 96%; Activity (Escherichia coli [22]): 62%; Activity (Escherichia coli [23]): 98%; Activity (Klebsiella pneumoniae [24]): 85%; Activity (Klebsiella pneumoniae [25]): 28%; Activity (Klebsiella pneumoniae [26]): 97%; Activity (Klebsiella oxytoca [27]): 89%; Activity (Proteus mirabilis [28]): 100%; Activity (Pseudomonas aeruginosa [29]): 83%; Activity (Serratia marcescens [30]): 100%; Activity (Pasteurella sp. [31]): 23%; Activity (Pseudomonas fluorescens [32]): 23%; Activity [33]: 23%; Activity (Acinetobacter sp. [34]): 23%
C[C@@H](O)[C@H]1C(=O)N2C(C(=O)O)=C(S[C@@H]3CN[C@H](C(=O)Nc4cccc(C(=O)O)c4)C3)[C@H](C)[C@H]12	94	100	92	99	100	99	96	78	100	100	100		100					
CO/N=C(\C(=O)N[C@@H]1C(=O)N2C(C(=O)O)=C(CSc3nc(=O)c(O)nn3C)CS[C@H]12)c1csc(N)n1 [CEFTRIAXONE]	67	79	64	96	38	98	85	19	99	89	100	17	100	15	15	15	15	Activity (Enterobacteriaceae): 7%
CO/N=C(\C(=O)N[C@@H]1C(=O)N2C(C(=O)O)=C(COC(C)=O)CS[C@H]12)c1csc(N)n1 [CEFOTAXIME]	67	79	62	96	38	99	85	19	99	96	100	9	100	8	8	8	8	Activity (Enterobacteriaceae): 6%
C[C@H]1COc2c(N3CCN(C)CC3)c(F)cc3c(=O)c(C(=O)O)cn1c23.C[C@H]1COc2c(N3CCN(C)CC3)c(F)cc3c(=O)c(C(=O)O)cn1c23.O [LEVOFLOXACIN]	78	96	88	81	33	83	84	28	96	100	100	72	93	47	47	47	47	
CO[C@@]1(NC(=O)Cc2cccs2)C(=O)N2C(C(=O)O)=C(COC(N)=O)CS[C@@H]21 [CEFOXITIN]	17	8	1	93	71	94	84	66	87	96	100		26					
